The subject of data set [1] is human embryonic lung (HEL) cells. The conditions noted are these: HEL cell cultures (Table 5); microscopically detectable alteration of normal cell morphology.
The subject of data set [2] is immortalized human dermal microvascular endothelial cells (HMEC-1). Description: Cytostatic activity, HMEC-1 proliferation. Format: cell-based. As to conditions: HMEC-1, read-out: IC50 HMEC-1, inhibit cell proliferation by 50%.
In data set [3] the test system is murine leukemia (L1210) cells. The conditions noted are these: read-out: IC50 L1210; inhibit cell proliferation by 50%; cited from earlier work.
For data set [4], the system named is human T-lymphocyte (CEM) cells. As to conditions: read-out: IC50 CEM; inhibit cell proliferation by 50%; cited from earlier work.
Data set [5] relates to human cervix carcinoma (HeLa) cells. The conditions noted are these: read-out: IC50 HeLa; inhibit cell proliferation by 50%; cited from earlier work.
In the next data set the test system is TK+ VZV Oka strain. Format: cell-based, varicella-zoster virus.
Another data set concerns TK− VZV 07-1 strain. Format: cell-based, varicella-zoster virus.
For the next data set, the system named is Human Coronavirus (229E). Format: cell-based. As to conditions: read-out: Antiviral activity EC50 Human Coronavirus (229E).

These results are taken from PMC7125519 (European Journal of Medicinal Chemistry, 2016).

In data set [1], `CCOP(=O)(OCC)[C@@H]1C[C@@H](Cn2c(=O)n(C(=O)c3ccc(F)cc3)c(=O)c3ccccc32)ON1C` (relative stereo) [trans-12d, Diethyl trans-{5-[(3-(4-fluorobenzoyl)-2,4-dioxo-3,4-dihydroquinazolin-1(2H)-yl)methyl]-2-methylisoxazolidin-3-yl}phosphonate] gave a Minimum cytotoxic concentration of no less than 100 ± 0 µM. Moreover, in data set [2], the IC50 was greater than 250 µM.

As for `CCOP(=O)(OCC)[C@@H]1C[C@@H](Cn2c(=O)n(C(=O)c3ccccc3)c(=O)c3ccccc32)ON1Cc1ccccc1` (relative stereo) [trans-13a, Diethyl trans-{5-[(3-benzoyl-2,4-dioxo-3,4-dihydroquinazolin-1(2H)-yl)methyl]-2-benzylisoxazolidin-3-yl}phosphonate], the IC50 in data set [2] is greater than 250 µM.

As for `Nc1nc2c(ncn2COCCO)c(=O)[nH]1` [Acyclovir], the Minimum cytotoxic concentration in data set [1] was greater than 250 µM.

In data set [1], `Cc1cn([C@H]2C[C@H](F)[C@@H](CO)O2)c(=O)[nH]c1=O` [Alovudine] returned a Minimum cytotoxic concentration greater than 250 µM.

Turning to `Nc1ccn(C[C@@H](CO)OCP(=O)(O)O)c(=O)n1.O.O` [Cidofovir], the Minimum cytotoxic concentration in data set [1] is greater than 250 µM.

`Nc1nc(O)c2ncn(COC(CO)CO)c2n1` [Ganciclovir]: the Minimum cytotoxic concentration in data set [1] is greater than 100 µM.

In data set [1], `NC(=O)c1ncn([C@@H]2O[C@H](CO)[C@@H](O)[C@H]2O)n1` [Ribavirin] gave a Minimum cytotoxic concentration of no less than 250 µM.

Molecule `Nc1ccn([C@H]2CC[C@@H](CO)O2)c(=O)n1` [Zalcitabine] returned a Minimum cytotoxic concentration in data set [1] greater than 250 µM.

Regarding `CCOP(=O)(OCC)[C@H]1C[C@@H](Cn2ccc(=O)n(C(=O)c3ccccc3)c2=O)ON1C` [cis-11a], the IC50 in data set [3], in data set [4] and in data set [5] was greater than 200 µM each time.

For the molecule `CCOP(=O)(OCC)[C@H]1C[C@@H](Cn2c(=O)n(C(=O)c3ccccc3)c(=O)c3ccccc32)ON1C` [cis-12a], the IC50 in data set [3] and in data set [5] was greater than 200 µM each time.

In the case of `CCOP(=O)(OCC)C1CC(Cn2c(=O)n(Cc3ccccc3F)c(=O)c3ccccc32)ON1Cc1ccccc1` (stereo not drawn) [cis-15b/trans-15b (87:13)], in the data set with TK+ VZV Oka strain, the “fold less active against the TK+ virus compared to acyclovir” value is 4–6 fold. Besides, in the data set with TK− VZV 07-1 strain, the “fold more active against the TK– strain compared to acyclovir” value was 10–14 fold.

As to `CCOP(=O)(OCC)[C@@H]1C[C@@H](Cn2ccc(=O)n(C(=O)c3ccccc3)c2=O)ON1C` [trans-11a], the IC50 in data set [3], in data set [4] and in data set [5] was greater than 200 µM each time.

Consider `CCOP(=O)(OCC)[C@@H]1C[C@@H](Cn2c(=O)n(C(=O)c3ccccc3)c(=O)c3ccccc32)ON1C` [trans-12a], for which the IC50 in data set [3] is no less than 159 µM.

For `CCOP(=O)(OCC)C1CC(Cn2c(=O)n(Cc3ccc(F)cc3)c(=O)c3ccccc32)ON1Cc1ccccc1` (stereo not drawn) [trans-15d/cis-15d (95:5)], the “fold less active against the TK+ virus compared to acyclovir” value in the data set with TK+ VZV Oka strain was 4–6 fold. Moreover, the “fold more active against the TK– strain compared to acyclovir” value with TK− VZV 07-1 strain was 10–14 fold.

B1: UDA: Urtica dioica agglutinin (UDA), reference compound (protein, UniProt P11218 24-372, looked up)
Lectin/endochitinase 1: QRCGSQGGGGTCPALWCCSIWGWCGDSEPYCGRTCENKCWSGERSDHRCGAAVGNPPCGQDRCCSVHGWCGGGNDYCSGSKCQYRCSSSVRGPRVALSGNSTANSIGNVVVTEPLFDQMFSHRKDCPSQGFYSYHSFLVAAESFPAFGTIGDVATRKREVAAFLAHISQATSGERSDVENPHAWGLCHINTTTVTENDFCTSSDWPCAAGKKYSPRGPIQLTHNFNYGLAGQAIGEDLIQNPDLVEKDPIISFKTALWFWMSQHDNKPSCHDIVLNANSAANRIPNKGVIGNIISRAFGHDDFAVRSSSIGFYKRYCDMLGVSYGHDLKYWFDNTPSSEFQRIQMRVAA
As a reminder, the EC50 is the concentration giving half of the maximal effect. Turning to B1, in data set [1], the Minimum cytotoxic concentration was no less than 100 µM. Further, the EC50 in the data set on Human Coronavirus (229E) worked out at 0.4 µM.
